Reference: US20210085640A1, “ACYLATED CATECHIN POLYPHENOLS AND METHODS OF THEIR USE FOR THE TREATMENT OF CANCER” (Flagship Pioneering Innovations V, Inc., priority 2018, published 2021)

Legend:
Assay type in all cases: cell-based
T24 bladder cancer cells = assay: Cancer cell survival (CellTiter-Glo), T24; conditions: 72 h
Procedure: (§1) The cells were prepared as follows. Cells were harvested during logarithmic growth, counted, and adjusted to 4.44×10^4 cells/mL with culture media. 90 μL of suspended cells were added to wells of 96-well plates for a final cell count of 4×10^3 cells/well. The plates were incubated overnight at 37 C with 5% CO2 overnight.
(§2) The test compounds were assayed as follows. Compound solutions were mixed at 10× final concentrations in cell media: 1 μM-10 mM (fatty acids) or 100 nM-1 mM (all other compounds). […] of solution was added to each well of cells in triplicate for each concentration. Well plates were incubated for 72 h at 37 C with 5% CO2 and then assayed with CellTiter-Glo by adding 50 μL of CTG solution to each well. Cells were lysed by shaking on an orbital shaker for 5 min. Plates were incubated at room temperature for 20 min and then each well's luminescence was measured. The surviving percentage of cells was determined as:
(§3) Survival %=(LumTest article−LumMedium control)/(LumNone treated−LumMedium control)[…]
Efficacy was assessed at nine concentration levels for each compound and the 50% inhibition concentration (IC50) determined for each compound.

[1] = system: Daudi lymphoma cancer cells; assay: Cancer cell survival (CellTiter-Glo), Daudi; conditions: 72 h
Procedure: as §1, §2, §3
Activity was assessed at nine concentration levels for each compound and the 50% inhibition concentration (IC50) determined for each compound.

MCF7 breast cancer cells = assay: Cancer cell survival (CellTiter-Glo), MCF7; conditions: 72 h
Procedure: as §1, §2, §3
(§4) Cytotoxicity was assessed at nine concentration levels for each compound and the 50% inhibition concentration (IC50) determined for each compound.

[2] = system: HCT 116 colorectal cancer cells; assay: Cancer cell survival (CellTiter-Glo), HCT 116; conditions: HCT 116 cells, 72 h
Procedure: as §1, §2, §3, §4

A549 lung cancer cells = assay: Cancer cell survival (CellTiter-Glo), A549; conditions: 72 h
Procedure: as §1, §2, §3, §4

[3] = system: PC-3 prostate cancer cells; assay: Cancer cell survival (CellTiter-Glo), PC-3; conditions: PC-3 cells, 72 h
Procedure: as §1, §2, §3, §4

A-431 skin cancer cells = assay: Cancer cell survival (CellTiter-Glo), A-431; set-up: Cell survival at given concentration: unit not given here; conditions: A-431 cells, 72 h
Procedure: as §1, §2, §3, §4

AGS stomach cancer cells = assay: Cancer cell survival (CellTiter-Glo), AGS; set-up: Cell survival at given concentration: unit not given here
Procedure: as §1, §2, §3, §4

Structure (SMILES): Cc1c(C)c2c(c(C)c1O)CC[C@@](C)(CCC[C@H](C)CCC[C@H](C)CCCC(C)C)O2 [alpha-tocopherol]
- Cell survival at given concentration (T24 bladder cancer cells; 101 nM): 1.02
- Cell survival at given concentration (T24 bladder cancer cells; 318 nM): 1.01
- Cell survival at given concentration (T24 bladder cancer cells; 1 μM): 0.96
- Cell survival at given concentration (T24 bladder cancer cells; 3 μM): 1.00
- Cell survival at given concentration (T24 bladder cancer cells; 10 μM): 0.99
- Cell survival at given concentration (T24 bladder cancer cells; 32 μM): 1.06
- Cell survival at given concentration (T24 bladder cancer cells; 100 μM): 0.98
- Cell survival at given concentration (T24 bladder cancer cells; 316 μM): 1.07
- Cell survival at given concentration (T24 bladder cancer cells; 1000 μM): 1.02
- Cell survival at given concentration ([1]; 101 nM): 0.98
- Cell survival at given concentration ([1]; 318 nM): 0.99
- Cell survival at given concentration ([1]; 1 μM): 1.01
- Cell survival at given concentration ([1]; 3 μM): 1.00
- Cell survival at given concentration ([1]; 10 μM): 1.02
- Cell survival at given concentration ([1]; 32 μM): 1.04
- Cell survival at given concentration ([1]; 100 μM): 1.04
- Cell survival at given concentration ([1]; 316 μM): 1.03
- Cell survival at given concentration ([1]; 1000 μM): 1.02
- Cell survival at given concentration (MCF7 breast cancer cells; 101 nM): 1.02
- Cell survival at given concentration (MCF7 breast cancer cells; 318 nM): 1.02
- Cell survival at given concentration (MCF7 breast cancer cells; 1 μM): 1.04
- Cell survival at given concentration (MCF7 breast cancer cells; 3 μM): 1.05
- Cell survival at given concentration (MCF7 breast cancer cells; 10 μM): 1.05
- Cell survival at given concentration (MCF7 breast cancer cells; 32 μM): 1.04
- Cell survival at given concentration (MCF7 breast cancer cells; 100 μM): 1.03
- Cell survival at given concentration (MCF7 breast cancer cells; 316 μM): 1.02
- Cell survival at given concentration (MCF7 breast cancer cells; 1000 μM): 1.01
- Cell survival at given concentration ([2]; 101 nM): 0.99
- Cell survival at given concentration ([2]; 318 nM): 0.98
- Cell survival at given concentration ([2]; 1 μM): 1.00
- Cell survival at given concentration ([2]; 3 μM): 1.01
- Cell survival at given concentration ([2]; 10 μM): 1.01
- Cell survival at given concentration ([2]; 32 μM): 1.03
- Cell survival at given concentration ([2]; 100 μM): 1.03
- Cell survival at given concentration ([2]; 316 μM): 0.98
- Cell survival at given concentration ([2]; 1000 μM): 0.97
- Cell survival at given concentration (A549 lung cancer cells; 101 nM): 1.03
- Cell survival at given concentration (A549 lung cancer cells; 318 nM): 1.05
- Cell survival at given concentration (A549 lung cancer cells; 1 μM): 1.06
- Cell survival at given concentration (A549 lung cancer cells; 3 μM): 1.04
- Cell survival at given concentration (A549 lung cancer cells; 10 μM): 1.08
- Cell survival at given concentration (A549 lung cancer cells; 32 μM): 1.09
- Cell survival at given concentration (A549 lung cancer cells; 100 μM): 1.08
- Cell survival at given concentration (A549 lung cancer cells; 316 μM): 1.07
- Cell survival at given concentration (A549 lung cancer cells; 1000 μM): 1.02
- Cell survival at given concentration ([3]; 101 nM): 1.01
- Cell survival at given concentration ([3]; 318 nM): 0.99
- Cell survival at given concentration ([3]; 1 μM): 1.04
- Cell survival at given concentration ([3]; 3 μM): 1.00
- Cell survival at given concentration ([3]; 10 μM): 1.03
- Cell survival at given concentration ([3]; 32 μM): 1.00
- Cell survival at given concentration ([3]; 100 μM): 0.99
- Cell survival at given concentration ([3]; 316 μM): 1.02
- Cell survival at given concentration ([3]; 1000 μM): 1.01
- Cell survival at given concentration (A-431 skin cancer cells; 101 nM): 1.00
- Cell survival at given concentration (A-431 skin cancer cells; 318 nM): 0.99
- Cell survival at given concentration (A-431 skin cancer cells; 1 μM): 1.01
- Cell survival at given concentration (A-431 skin cancer cells; 3 μM): 1.01
- Cell survival at given concentration (A-431 skin cancer cells; 10 μM): 1.03
- Cell survival at given concentration (A-431 skin cancer cells; 32 μM): 1.01
- Cell survival at given concentration (A-431 skin cancer cells; 100 μM): 1.02
- Cell survival at given concentration (A-431 skin cancer cells; 316 μM): 1.01
- Cell survival at given concentration (A-431 skin cancer cells; 1000 μM): 1.04
- Cell survival at given concentration (AGS stomach cancer cells; 101 nM): 1.03
- Cell survival at given concentration (AGS stomach cancer cells; 318 nM): 1.03
- Cell survival at given concentration (AGS stomach cancer cells; 1 μM, Table 10.1): 1.07
- Cell survival at given concentration (AGS stomach cancer cells; 3 μM, Table 10.1): 1.04
- Cell survival at given concentration (AGS stomach cancer cells; 10 μM, Table 10.1): 1.07
- Cell survival at given concentration (AGS stomach cancer cells; 32 μM, Table 10.1): 1.06
- Cell survival at given concentration (AGS stomach cancer cells; 100 μM, Table 10.1): 1.09
- Cell survival at given concentration (AGS stomach cancer cells; 316 μM): 1.06
- Cell survival at given concentration (AGS stomach cancer cells; 1000 μM): 1.06
